These results are taken from publication PMC9694926, “Novel Uracil-Based Inhibitors of Acetylcholinesterase with Potency for Treating Memory Impairment in an Animal Model of Alzheimer’s Disease” (Molecules, 2022).

Data set [1] addresses T1, hBChE (Homo sapiens, UniProt P06276).
T1 construct: hBChE from blood plasma; purchased Sigma-Aldrich; host or cells: human blood plasma
To be noted: cited from earlier work.

Data set [2] deals with CD1 mice. The conditions noted are these: i.p. injection, cited from earlier work.
For data set [3], the target named is T2, hAChE (Homo sapiens, UniProt P22303).
T2 construct: purchased Sigma-Aldrich
T2 sequence (P22303 32-614): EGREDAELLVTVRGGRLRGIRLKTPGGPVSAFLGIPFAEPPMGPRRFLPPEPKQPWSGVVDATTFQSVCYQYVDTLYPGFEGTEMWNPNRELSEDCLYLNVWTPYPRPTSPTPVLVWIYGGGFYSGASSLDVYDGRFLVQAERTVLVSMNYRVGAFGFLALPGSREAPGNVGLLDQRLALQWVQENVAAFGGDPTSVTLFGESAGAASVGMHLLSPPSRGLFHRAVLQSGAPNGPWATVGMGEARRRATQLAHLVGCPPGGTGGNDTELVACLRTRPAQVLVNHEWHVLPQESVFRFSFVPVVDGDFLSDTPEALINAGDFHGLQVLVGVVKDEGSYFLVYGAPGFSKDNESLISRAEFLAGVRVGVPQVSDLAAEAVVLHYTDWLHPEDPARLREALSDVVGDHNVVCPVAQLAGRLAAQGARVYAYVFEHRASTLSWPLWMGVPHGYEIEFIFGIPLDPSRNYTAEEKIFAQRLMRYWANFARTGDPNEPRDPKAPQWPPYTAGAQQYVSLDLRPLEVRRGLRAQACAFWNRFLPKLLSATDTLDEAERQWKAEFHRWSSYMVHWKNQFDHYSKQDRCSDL
The conditions noted are these: cited from earlier work; for IC50: human AChE.

Data set [4] addresses T2, hAChE. The data set can be described thus: biochemical. It is filed as biochemical. To be noted: for AChE Selectivity: (IC50 BChE)/(IC50 AChE); for IC50: human AChE, acetylthiocholine 1 mM, mean of three independent measurements. Here is the method:
(§1) The inhibitory potency of compounds against hAChE and hBChE was studied using Ellman’s method. Acetylthiocholine iodide (ATC), butyrylthiocholine iodide (BTC), recombinant hAChE, hBChE from blood plasma, and 5,5′-dithio-bis-(2-nitrobenzoic) acid (DTNB) were purchased from Sigma-Aldrich (Sigma-Aldrich, St. Louis, MO, USA). Stock solutions of compounds (0.01 M) were prepared using ethanol or water. In the case of compounds soluble in ethanol, the final concentration of ethanol in the cuvette was 0.1% vol. […] The enzyme-catalyzed reaction of hydrolysis was carried out in 0.1 M phosphate buffer at pH 8.0 containing 0.25 units of hAChE or hBChE and 1 mM ATC or BTC as substrates. The tested compounds were pre-incubated with the enzyme for 5 min at 25 °C prior to the addition of the substrate and the commencement of hydrolysis kinetics recording. Experiments were performed in triplicate. […] The sample without substrate was used as a blank. The sample without inhibitor was used as a control (in a solution of 0.1% vol. ethanol in the case of compounds soluble in ethanol). Percentage of AChE/BChE inhibition was determined by comparison of rates of reaction of test samples relative to the control sample. The percentage of inhibition as a function of compound concentration was plotted using OriginPro 8.5 software (OriginLab Corporation, Northampton, MA, USA).

Data set [5] addresses T1, hBChE. Description: biochemical. To be noted: butyrylthiocholine 1 mM, mean of three independent measurements. As for the experimental part:
as §1

Data set [6] is described as follows: Acute toxicity (LD50), intraperitoneal injection. The conditions noted are these: CD1, mouse, in vivo, ip; mice, i.p. injection. It is filed as in vivo. Here is the method:
(§2) All experiments involving animals were performed in accordance with the guidelines set out by the European Union Council Directive 2010/63/EU; the experimental protocols were approved by the Animal Care and Use Committee of the Federal Research Center “Kazan Scientific Center of the Russian Academy of Sciences”. Toxicological experiments were performed using intraperitoneal injection of the various compounds in CD1 mice weighing 20–25 g. Mice were maintained on a 12 h light/dark cycle (light from 7:00 a.m. to 7:00 p.m.) at 20−22 °C and 60−70% relative humidity. Five different doses (determined during preliminary tests) were used with six animals per dose. Animals were observed 14 days after injection, and symptoms of intoxication were recorded. […] LD50 was determined by the method of Weiss. Stock solutions of compounds were prepared in ethanol or water. Compounds were administered intraperitoneally in sterile physiological saline. The concentration of ethanol in physiological saline was 5% vol.

Another data set relates to APP/PS1 mice. The conditions noted are these: 1 mg/kg p.o. daily.
Data set [7] relates to scopolamine-induced amnesia in mice. The data set can be described thus: T-maze spatial memory test in scopolamine-induced amnesia model. In kind it is in vivo, CD1 mice. The conditions noted are these: scopolamine 2 mg/kg i.p.; 1 mg/kg p.o. daily. Here is the method:
During the first set of in vivo experiments, the ability of compound 2c to reverse the scopolamine-induced amnesia in mice was studied by means of behavioral testing in a T-maze. The percentages of correct choices and mice reaching the criterion of learning were evaluated along with the dynamic of reaching the criterion of learning. Amnesia was caused by intraperitoneal administration of scopolamine (2 mg/kg) 40 min prior to testing. […]. The control group of mice was treated with saline. The behavior of mice was observed within 18 days (Figure 6A).
Scopolamine, representing a muscarinic acetylcholine receptor antagonist, produces a transient receptor blockade and cognitive deficits, which can be considered as a model of AD [28]. CD1 mice were randomly divided into 5 groups (n = 8–10): control group of mice treated with saline; mice injected with a water solution of scopolamine (2 mg/kg, i.p.) at 40 min before testing; […]. Drugs were administered over 18 days.
A reward alternation task was used to assess spatial memory performance in T-maze (OpenScience, Moscow, Russia) as previously described. Briefly, prior to commencing T-maze testing, mice were placed on a food-deprivation schedule over 3 days. […] The percentages of correct choices and mice reaching the criterion of learning were evaluated along with the dynamic of reaching the criterion of learning.

Data set [8] relates to CD1 mice. Description: Acute toxicity (LD50), intraperitoneal injection. It is filed as in vivo. The conditions noted are these: i.p. injection. As for the experimental part:
as §2

Structures are written as SMILES. Structures can show the parent of a compound that is named as a salt. Where two headings read alike, the source gives them in different places.

T1 sequence (P06276 29-602): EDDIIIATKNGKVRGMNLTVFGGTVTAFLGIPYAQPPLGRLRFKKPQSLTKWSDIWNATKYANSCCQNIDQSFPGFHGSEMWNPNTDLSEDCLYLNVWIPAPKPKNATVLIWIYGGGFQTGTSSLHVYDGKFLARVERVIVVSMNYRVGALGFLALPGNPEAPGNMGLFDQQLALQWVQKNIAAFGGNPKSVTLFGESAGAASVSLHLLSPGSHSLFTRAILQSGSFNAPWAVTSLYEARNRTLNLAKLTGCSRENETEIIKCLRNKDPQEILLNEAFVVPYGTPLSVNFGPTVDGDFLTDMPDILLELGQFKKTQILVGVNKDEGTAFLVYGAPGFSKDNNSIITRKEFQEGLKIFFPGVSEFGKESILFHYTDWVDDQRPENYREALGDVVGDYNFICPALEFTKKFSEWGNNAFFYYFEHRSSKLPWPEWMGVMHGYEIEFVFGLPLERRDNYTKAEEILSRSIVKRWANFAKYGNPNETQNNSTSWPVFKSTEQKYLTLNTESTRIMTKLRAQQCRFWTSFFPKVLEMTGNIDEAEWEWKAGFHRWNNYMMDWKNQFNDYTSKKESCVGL
Description for APP/PS1 mice: Wild-type and APP/PS1 saline treated mice were employed as negative and positive controls, respectively. The behavior of mice in the T-maze was observed within 18 days (Figure 7A).
Mice were assigned to four groups (n = 8–10). […] APP/PS1 mice and their wild-type non-transgenic littermates that received saline were used as positive and negative controls.
A reward alternation task was used to assess spatial memory performance in T-maze (OpenScience, Moscow, Russia) as previously described [32, 33]. Briefly, prior to commencing T-maze testing, mice were placed on a food-deprivation schedule over 3 days. On the fourth day, mice were placed in the start arm of the T-maze and made it possible to move freely. Over the next 14 days of testing, mice were given 6 pairs of training trials. In the first trial of each pair (forced trial), one of the goal arm guillotine doors was closed and the mouse was constrained to selecting the opposite arm. The mouse was returned to the start box 15–20 s after consuming the reward (diluted sweetened condensed milk). In the second (free choice) trial, both goal arm doors were opened, the arm opposite the one selected in the forced trial was baited. […] The percentages of correct choices and mice reaching the criterion of learning were evaluated along with the dynamic of reaching the criterion of learning.

`CCN(CCCCCn1c(C)cc(=O)n(CCCCCN(CC)Cc2ccccc2[N+](=O)[O-])c1=O)Cc1ccccc1[N+](=O)[O-]` [1a]: the half-maximal inhibitory concentration (IC50) was 35 µM on hBChE [1] (ref [12]) and 0.0035 ± 0.0003 µM at hAChE [3] (ref [12]). Moreover, the median lethal dose (LD50) with CD1 mice [2] (ref [12]) was 51 mg/kg. Besides, on hAChE [3] ((IC50 BChE)/(IC50 AChE), ref [12]), the “AChE Selectivity” value is 10,000.

For `CCN(CCCCCn1c(C)cc(=O)n(CCCCCN(CC)Cc2ccccc2C(F)(F)F)c1=O)Cc1ccccc1C(F)(F)F` [1b], the IC50 was 20 µM on hBChE [1] (ref [12]) and 0.0056 ± 0.0007 µM at hAChE [3] (ref [12]). Besides, the LD50 with CD1 mice [2] (ref [12]) is 49 mg/kg.

With `CCN(CCCCCn1c(C)cc(=O)n(CCCCCN(CC)Cc2ccccc2C#N)c1=O)Cc1ccccc1C#N` [1c], the results for the IC50 at hBChE [1] (ref [14]) and at hAChE [3] (ref [14]) were 100 µM and 0.0073 ± 0.0006 µM, respectively. Besides, in the data set with CD1 mice [2] (ref [14]), the LD50 is given as 138 mg/kg.

Consider `CCN(CCCn1c(C)cc(=O)n(CCCN(CC)Cc2cccc(C(=O)OC)c2)c1=O)Cc1cccc(C(=O)OC)c1` [2a, 1,3-Bis[3-(meta-methoxycarbonylbenzylethylamino)propyl]-6-methyluracil], for which, at hAChE [4], the “AChE Selectivity” value stood at 0.08 and the half-inhibitory concentration (IC50) was found to be 210 µM. On hBChE [5], this compound had an IC50 of 16 µM. The compound further displayed an LD50 at 14 days in data set [6] of 170 mg/kg.

As for `CCN(CCCCn1c(C)cc(=O)n(CCCCN(CC)Cc2cccc(C(=O)OC)c2)c1=O)Cc1cccc(C(=O)OC)c1` [2b, 1,3-Bis[4-(meta-methoxycarbonylbenzylethylamino)butyl]-6-methyluracil], at hAChE [4], the “AChE Selectivity” value amounted to 722 and inhibition was half-maximal at 0.027 ± 0.003 µM (IC50). At hBChE [5], this compound displayed an IC50 of 19.5 µM. In data set [6], the LD50 at 14 days turned out to be 120 mg/kg.

With `CCN(CCCCCCn1c(C)cc(=O)n(CCCCCCN(CC)Cc2cccc(C(=O)OC)c2)c1=O)Cc1cccc(C(=O)OC)c1` [2d, 1,3-Bis[6-(meta-methoxycarbonylbenzylethylamino)hexyl]-6-methyluracil], on hAChE [4], the “AChE Selectivity” value turned out to be 285 and half-maximal inhibition (IC50) required 0.0047 ± 0.00017 µM. On hBChE [5], this compound showed an IC50 of 1.34 ± 0.33 µM. The LD50 at 14 days in [6] came out at 47.5 mg/kg.

As for `CCN(CCCCCn1c(C)cc(=O)n(CCCCCN(CC)Cc2cccc(C(=O)[O-])c2)c1=O)Cc1cccc(C(=O)[O-])c1.[Na+].[Na+]` [2e, 1,3-Bis[5-((meta-methylbenzoate)ethylamino)pentyl]-6-methyluracil disodium salt], at hAChE [4], the “AChE Selectivity” value is 1.6 × 10^6 and the midpoint of inhibition, the IC50, lay at 0.013 ± 0.001 µM. In addition, the IC50 against hBChE [5] was ~21000 µM. The LD50 at 14 days in data set [6] turned out to be 170 mg/kg.

On to `CCN(CCCCn1c(C)cc(=O)n(CCCCN(CC)Cc2ccc(C(=O)OC)cc2)c1=O)Cc1ccc(C(=O)OC)cc1` [3a, 1,3-Bis[4-(para-methoxycarbonylbenzylethylamino)butyl]-6-methyluracil], for which, at hAChE [4], the “AChE Selectivity” value came out at 39. In addition, the IC50 on hAChE [4] was found to be 3.3 ± 0.58 µM; against hBChE [5], 128 µM. The compound further displayed an LD50 at 14 days in data set [6] of 51 mg/kg.

As for `CCN(CCCCCn1c(C)cc(=O)n(CCCCCN(CC)Cc2ccc(C(=O)OC)cc2)c1=O)Cc1ccc(C(=O)OC)cc1` [3b, 1,3-Bis[5-(para-methoxycarbonylbenzylethylamino)pentyl]-6-methyluracil], the “AChE Selectivity” value on hAChE [4] stood at 355.5. The IC50 on hAChE [4] came to 0.768 ± 0.08 µM; against hBChE [5], 273 µM. The LD50 at 14 days in [6] came out at 188 mg/kg.

Turning to `CCN(CCCCCCn1c(C)cc(=O)n(CCCCCCN(CC)Cc2ccc(C(=O)OC)cc2)c1=O)Cc1ccc(C(=O)OC)cc1` [3c, 1,3-Bis[6-(para-methoxycarbonylbenzylethylamino)hexyl]-6-methyluracil], at hAChE [4], the “AChE Selectivity” value is 2218 and the midpoint of inhibition, the IC50, lay at 0.027 ± 0.007 µM. In addition, at hAChE [4] (AChE vs BChE), the “selectivity against AChE lower compared to compound 2c” value is “more than 15 times”. Moreover, at hBChE [5], the IC50 was 59.9 µM. Also, the LD50 at 14 days in data set [6] came out at 87 mg/kg.

`CCN(CCCCCn1c(C)cc(=O)n(CCCCCN(CC)Cc2ccc(C(=O)[O-])cc2)c1=O)Cc1ccc(C(=O)[O-])cc1.[Na+].[Na+]` [3d, 1,3-Bis[5-((para-methylbenzoate)ethylamino)pentyl]-6-methyluracil disodium salt]: the values for the IC50 at hAChE [4] and against hBChE [5] were 0.0046 ± 0.0004 µM and > 100000 µM, respectively. Moreover, in data set [6], the LD50 at 14 days is 168 mg/kg.

Regarding `CCN(CCCCn1c(=O)c2ccccc2n(CCCCN(CC)Cc2cccc(C(=O)OC)c2)c1=O)Cc1cccc(C(=O)OC)c1` [4a, 1,3-Bis[4-(meta-methoxycarbonylbenzylethylamino)butyl]-quinazoline-2,4-dione], at hAChE [4], the “AChE Selectivity” value is recorded as 7 and the IC50 worked out at 0.46 ± 0.095 µM. Further, 3.16 ± 0.39 µM corresponded to half-maximal inhibition against hBChE [5] (IC50). Also, the LD50 at 14 days in [6] worked out at 120 mg/kg.

Regarding `CCN(CCCCCn1c(=O)c2ccccc2n(CCCCCN(CC)Cc2cccc(C(=O)OC)c2)c1=O)Cc1cccc(C(=O)OC)c1` [4b], on hAChE [4], the “AChE Selectivity” value is given as 8.2 and the half-maximal inhibitory concentration (IC50) was determined as 0.29 ± 0.042 µM. On hBChE [5], this compound came in with a 50% inhibitory concentration (IC50) of 2.38 ± 0.49 µM. Besides, the LD50 at 14 days in [6] was found to be 93 mg/kg.

Turning to `COc1cc2c(cc1OC)C(=O)C(CC1CCN(Cc3ccccc3)CC1)C2` (centres unmarked) [Donepezil, donepezil hydrochloride], in the data set with APP/PS1 mice, the “percentage of correct choices in T-maze” value came to 67.46 ± 2.35% and the “percentage of mice reaching the criterion of learning” value is listed as 50%. For the same compound, in data set [7], the “percentage of correct choices in T-maze” value came out at 66.78 ± 2.62% and the “percentage of mice reaching the criterion of learning by day 14” value came out at 80%.

With `CCN(CCCCCn1c(C)cc(=O)n(CCCCCN(CC)Cc2cccc(C(=O)OC)c2)c1=O)Cc1cccc(C(=O)OC)c1` [compound 9], in the data set on CD1 mice [8], the LD50 came out at 96 mg/kg. The solubility in water result in the data set “Solubility in water” was “water-soluble”.
